Data published in ChEMBL document CHEMBL1150977, “A quantitative analysis of kinase inhibitor selectivity” (Nat Biotechnol, 2008).

Legend:
[1] = molecular target: Maternal embryonic leucine zipper kinase (Homo sapiens, UniProt Q14680)
[2] = molecular target: Ribosomal protein S6 kinase alpha-5 (Homo sapiens, UniProt O75582)
[3] = molecular target: T1, Phosphorylase b kinase gamma catalytic chain, liver/testis isoform (Homo sapiens, UniProt P15735)
T1 sequence (P15735 whole entry): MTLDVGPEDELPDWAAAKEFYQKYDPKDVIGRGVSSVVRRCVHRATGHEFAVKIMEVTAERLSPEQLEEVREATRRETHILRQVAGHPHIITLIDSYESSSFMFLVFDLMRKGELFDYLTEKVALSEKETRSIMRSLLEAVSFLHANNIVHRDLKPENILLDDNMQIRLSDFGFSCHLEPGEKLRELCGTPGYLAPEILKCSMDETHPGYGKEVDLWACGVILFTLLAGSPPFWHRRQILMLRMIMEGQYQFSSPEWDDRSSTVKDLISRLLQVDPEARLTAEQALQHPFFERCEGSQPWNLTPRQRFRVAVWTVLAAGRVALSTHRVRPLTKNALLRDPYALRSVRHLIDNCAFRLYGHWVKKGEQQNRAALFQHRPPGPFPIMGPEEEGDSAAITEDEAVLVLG

[4] = molecular target: cAMP-dependent protein kinase catalytic subunit beta (Homo sapiens, UniProt P22694)
[5] = molecular target: Fibroblast growth factor receptor 2 (Homo sapiens, UniProt P21802)
[6] = molecular target: Serine/threonine-protein kinase MRCK beta (Homo sapiens, UniProt Q9Y5S2)
SRSF protein kinase 1 = SRSF protein kinase 1 (Homo sapiens, UniProt Q96SB4)
Chain of SRSF protein kinase 1 (Q96SB4 whole entry): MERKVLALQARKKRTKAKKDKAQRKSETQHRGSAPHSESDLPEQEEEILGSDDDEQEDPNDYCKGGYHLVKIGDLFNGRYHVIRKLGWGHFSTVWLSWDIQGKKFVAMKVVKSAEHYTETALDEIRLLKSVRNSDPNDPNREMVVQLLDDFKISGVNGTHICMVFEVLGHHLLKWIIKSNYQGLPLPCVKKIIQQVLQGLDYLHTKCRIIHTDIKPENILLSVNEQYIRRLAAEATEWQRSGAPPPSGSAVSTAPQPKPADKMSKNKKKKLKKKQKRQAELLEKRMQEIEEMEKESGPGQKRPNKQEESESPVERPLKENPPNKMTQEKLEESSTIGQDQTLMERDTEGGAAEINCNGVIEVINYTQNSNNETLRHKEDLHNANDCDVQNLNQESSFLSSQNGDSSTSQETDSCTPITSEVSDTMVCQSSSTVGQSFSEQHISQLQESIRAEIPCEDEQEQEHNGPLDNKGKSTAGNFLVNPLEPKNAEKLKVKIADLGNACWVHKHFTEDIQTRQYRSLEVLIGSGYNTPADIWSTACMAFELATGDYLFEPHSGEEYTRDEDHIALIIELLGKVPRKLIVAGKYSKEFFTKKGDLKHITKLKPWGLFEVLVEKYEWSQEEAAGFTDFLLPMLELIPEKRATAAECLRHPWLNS

[7] = molecular target: Mitogen-activated protein kinase kinase kinase 20 (Homo sapiens, UniProt Q9NYL2)
Chain of Mitogen-activated protein kinase kinase kinase 20 (Q9NYL2 whole entry): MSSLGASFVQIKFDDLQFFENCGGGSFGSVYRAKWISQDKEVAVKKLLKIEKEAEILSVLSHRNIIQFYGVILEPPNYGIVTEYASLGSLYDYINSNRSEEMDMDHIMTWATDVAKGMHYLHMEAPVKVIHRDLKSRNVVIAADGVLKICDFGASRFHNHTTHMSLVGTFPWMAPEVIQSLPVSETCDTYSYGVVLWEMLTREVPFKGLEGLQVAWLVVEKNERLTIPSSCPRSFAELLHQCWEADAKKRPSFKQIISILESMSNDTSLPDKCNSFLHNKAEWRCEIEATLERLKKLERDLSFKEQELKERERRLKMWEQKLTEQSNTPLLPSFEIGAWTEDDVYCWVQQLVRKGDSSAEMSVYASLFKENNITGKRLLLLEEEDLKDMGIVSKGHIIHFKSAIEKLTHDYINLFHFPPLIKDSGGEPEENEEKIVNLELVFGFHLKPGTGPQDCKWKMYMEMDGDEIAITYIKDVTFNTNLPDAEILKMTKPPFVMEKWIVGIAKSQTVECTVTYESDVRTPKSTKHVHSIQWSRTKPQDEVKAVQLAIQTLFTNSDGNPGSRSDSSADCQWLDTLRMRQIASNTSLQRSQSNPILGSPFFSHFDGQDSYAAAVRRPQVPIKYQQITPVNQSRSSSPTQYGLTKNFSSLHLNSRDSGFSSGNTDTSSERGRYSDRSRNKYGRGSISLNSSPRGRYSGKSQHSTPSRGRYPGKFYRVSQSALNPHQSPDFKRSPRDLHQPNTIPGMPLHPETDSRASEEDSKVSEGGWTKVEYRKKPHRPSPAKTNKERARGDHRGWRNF

Activated CDC42 kinase 1 = Activated CDC42 kinase 1 (Homo sapiens, UniProt Q07912)
[8] = molecular target: T2, Serine/threonine-protein kinase PLK4 (Homo sapiens, UniProt O00444)
T2 sequence (O00444 whole entry): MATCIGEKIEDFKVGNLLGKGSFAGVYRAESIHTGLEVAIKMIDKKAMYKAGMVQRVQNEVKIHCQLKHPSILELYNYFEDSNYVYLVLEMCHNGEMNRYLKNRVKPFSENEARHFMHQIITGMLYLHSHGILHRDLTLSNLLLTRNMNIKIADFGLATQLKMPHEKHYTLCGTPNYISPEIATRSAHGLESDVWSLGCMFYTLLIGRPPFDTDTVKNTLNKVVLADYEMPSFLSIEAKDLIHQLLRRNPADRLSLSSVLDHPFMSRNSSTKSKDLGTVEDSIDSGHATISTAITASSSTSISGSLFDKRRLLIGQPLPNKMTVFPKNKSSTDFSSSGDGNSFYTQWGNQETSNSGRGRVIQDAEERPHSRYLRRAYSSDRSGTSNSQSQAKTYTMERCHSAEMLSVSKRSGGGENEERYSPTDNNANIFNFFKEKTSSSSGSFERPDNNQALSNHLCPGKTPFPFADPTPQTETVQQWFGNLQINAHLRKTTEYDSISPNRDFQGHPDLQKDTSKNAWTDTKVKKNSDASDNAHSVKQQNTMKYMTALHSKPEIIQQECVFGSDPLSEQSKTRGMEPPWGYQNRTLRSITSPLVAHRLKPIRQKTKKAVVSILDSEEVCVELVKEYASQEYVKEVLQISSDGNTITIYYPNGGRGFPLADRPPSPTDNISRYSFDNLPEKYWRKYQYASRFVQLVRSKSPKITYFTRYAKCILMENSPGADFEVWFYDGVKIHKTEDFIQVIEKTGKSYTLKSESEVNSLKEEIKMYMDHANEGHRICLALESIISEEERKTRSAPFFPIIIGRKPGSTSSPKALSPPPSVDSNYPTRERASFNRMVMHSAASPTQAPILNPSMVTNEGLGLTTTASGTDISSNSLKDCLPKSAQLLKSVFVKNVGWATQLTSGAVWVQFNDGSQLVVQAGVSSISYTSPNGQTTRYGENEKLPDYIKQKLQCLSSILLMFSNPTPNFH

Focal adhesion kinase 1 = Focal adhesion kinase 1 (Homo sapiens, UniProt Q05397)
Chain of Focal adhesion kinase 1 (Q05397 whole entry): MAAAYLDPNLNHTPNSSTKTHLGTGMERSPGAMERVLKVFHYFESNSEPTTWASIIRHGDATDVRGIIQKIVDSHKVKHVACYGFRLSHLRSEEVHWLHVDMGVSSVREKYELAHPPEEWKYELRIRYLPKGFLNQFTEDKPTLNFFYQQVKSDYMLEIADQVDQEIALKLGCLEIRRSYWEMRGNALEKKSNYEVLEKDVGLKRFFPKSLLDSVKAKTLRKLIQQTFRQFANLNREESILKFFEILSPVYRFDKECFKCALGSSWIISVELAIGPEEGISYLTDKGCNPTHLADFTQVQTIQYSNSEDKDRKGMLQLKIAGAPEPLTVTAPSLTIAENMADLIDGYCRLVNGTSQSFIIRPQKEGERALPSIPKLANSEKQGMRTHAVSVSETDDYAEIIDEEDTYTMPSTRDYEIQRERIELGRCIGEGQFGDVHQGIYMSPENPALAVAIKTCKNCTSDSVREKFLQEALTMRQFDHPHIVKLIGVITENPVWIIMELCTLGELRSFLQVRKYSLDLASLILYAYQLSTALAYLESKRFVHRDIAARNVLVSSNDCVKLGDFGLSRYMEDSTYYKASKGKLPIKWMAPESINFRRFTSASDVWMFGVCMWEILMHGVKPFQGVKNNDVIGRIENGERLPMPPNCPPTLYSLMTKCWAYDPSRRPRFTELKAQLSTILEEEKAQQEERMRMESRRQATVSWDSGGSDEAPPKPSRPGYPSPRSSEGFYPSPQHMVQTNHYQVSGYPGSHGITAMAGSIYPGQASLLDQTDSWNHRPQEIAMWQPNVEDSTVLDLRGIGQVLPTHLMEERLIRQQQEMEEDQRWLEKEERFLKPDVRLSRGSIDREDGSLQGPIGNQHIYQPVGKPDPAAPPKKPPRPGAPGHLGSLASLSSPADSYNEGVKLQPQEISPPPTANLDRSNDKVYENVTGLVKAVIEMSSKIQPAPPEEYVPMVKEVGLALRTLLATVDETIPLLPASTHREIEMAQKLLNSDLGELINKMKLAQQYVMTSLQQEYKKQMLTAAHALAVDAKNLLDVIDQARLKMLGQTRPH

[9] = molecular target: Mitogen-activated protein kinase kinase kinase 4 (Homo sapiens, UniProt Q9Y6R4)
[10] = molecular target: Mitogen-activated protein kinase 6 (Homo sapiens, UniProt Q16659)
[11] = molecular target: Mitogen-activated protein kinase kinase kinase 9 (Homo sapiens, UniProt P80192)
[12] = molecular target: Serine/threonine-protein kinase PAK 1 (Homo sapiens, UniProt Q13153)
Chain of Serine/threonine-protein kinase PAK 1 (Q13153 whole entry): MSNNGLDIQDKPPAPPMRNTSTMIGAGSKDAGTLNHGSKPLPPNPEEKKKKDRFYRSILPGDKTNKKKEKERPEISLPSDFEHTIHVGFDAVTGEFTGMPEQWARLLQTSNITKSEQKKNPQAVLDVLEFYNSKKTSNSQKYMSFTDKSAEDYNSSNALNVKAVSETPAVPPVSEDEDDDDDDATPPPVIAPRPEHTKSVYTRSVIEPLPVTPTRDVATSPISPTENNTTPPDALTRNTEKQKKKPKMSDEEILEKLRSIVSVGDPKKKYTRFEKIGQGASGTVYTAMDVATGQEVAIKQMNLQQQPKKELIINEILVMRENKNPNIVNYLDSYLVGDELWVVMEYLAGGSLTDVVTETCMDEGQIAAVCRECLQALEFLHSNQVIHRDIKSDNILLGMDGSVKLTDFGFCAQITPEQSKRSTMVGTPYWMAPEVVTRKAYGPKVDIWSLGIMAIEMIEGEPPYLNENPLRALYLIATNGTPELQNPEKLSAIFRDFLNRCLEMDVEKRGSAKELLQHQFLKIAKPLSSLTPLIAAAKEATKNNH

[13] = molecular target: Activin receptor type-1-like (Homo sapiens, UniProt P37023)
[14] = molecular target: MAP kinase-interacting serine/threonine-protein kinase 1 (Homo sapiens, UniProt Q9BUB5)
Chain of MAP kinase-interacting serine/threonine-protein kinase 1 (Q9BUB5 whole entry): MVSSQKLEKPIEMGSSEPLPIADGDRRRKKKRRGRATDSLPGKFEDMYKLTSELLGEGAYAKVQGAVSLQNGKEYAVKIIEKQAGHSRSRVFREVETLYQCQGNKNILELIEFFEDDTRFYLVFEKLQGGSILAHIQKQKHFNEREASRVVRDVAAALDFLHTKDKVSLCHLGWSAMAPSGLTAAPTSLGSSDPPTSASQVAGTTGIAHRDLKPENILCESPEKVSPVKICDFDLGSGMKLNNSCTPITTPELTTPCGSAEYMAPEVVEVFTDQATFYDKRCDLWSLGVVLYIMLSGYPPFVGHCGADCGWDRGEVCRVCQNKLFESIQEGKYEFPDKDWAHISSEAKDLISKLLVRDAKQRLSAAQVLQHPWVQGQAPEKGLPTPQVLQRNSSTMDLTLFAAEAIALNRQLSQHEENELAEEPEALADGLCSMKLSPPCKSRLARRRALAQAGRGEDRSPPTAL

[15] = molecular target: T3, Serine/threonine-protein kinase 3 (Homo sapiens, UniProt Q13188)
T3 sequence (Q13188 whole entry): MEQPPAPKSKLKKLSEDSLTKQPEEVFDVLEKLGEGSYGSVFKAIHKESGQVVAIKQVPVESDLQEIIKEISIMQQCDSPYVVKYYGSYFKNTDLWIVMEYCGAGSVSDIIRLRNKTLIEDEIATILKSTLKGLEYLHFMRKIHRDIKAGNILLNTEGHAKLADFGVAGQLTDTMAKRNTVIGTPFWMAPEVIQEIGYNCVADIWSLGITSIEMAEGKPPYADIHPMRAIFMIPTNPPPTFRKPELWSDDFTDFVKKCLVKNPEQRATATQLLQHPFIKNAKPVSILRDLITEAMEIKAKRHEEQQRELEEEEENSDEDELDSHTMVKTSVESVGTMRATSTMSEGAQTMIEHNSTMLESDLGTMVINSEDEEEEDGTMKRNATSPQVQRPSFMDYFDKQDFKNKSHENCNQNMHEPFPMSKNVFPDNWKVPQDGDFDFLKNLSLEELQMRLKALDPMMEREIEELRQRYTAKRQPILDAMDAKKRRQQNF

[16] = molecular target: Serine/threonine-protein kinase Nek7 (Homo sapiens, UniProt Q8TDX7)
Chain of Serine/threonine-protein kinase Nek7 (Q8TDX7 whole entry): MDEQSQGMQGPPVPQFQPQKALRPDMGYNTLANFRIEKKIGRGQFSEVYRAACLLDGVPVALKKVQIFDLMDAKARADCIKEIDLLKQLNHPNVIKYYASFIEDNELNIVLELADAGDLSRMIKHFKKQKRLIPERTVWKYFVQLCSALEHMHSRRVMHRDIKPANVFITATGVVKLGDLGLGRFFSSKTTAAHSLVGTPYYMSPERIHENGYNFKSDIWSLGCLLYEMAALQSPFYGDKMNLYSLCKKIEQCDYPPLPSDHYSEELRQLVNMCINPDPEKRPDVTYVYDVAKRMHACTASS

[17] = molecular target: Serine/threonine-protein kinase B-raf (Homo sapiens, UniProt P15056, V600E)
Chain of Serine/threonine-protein kinase B-raf (P15056 2-766 V600E limits assumed): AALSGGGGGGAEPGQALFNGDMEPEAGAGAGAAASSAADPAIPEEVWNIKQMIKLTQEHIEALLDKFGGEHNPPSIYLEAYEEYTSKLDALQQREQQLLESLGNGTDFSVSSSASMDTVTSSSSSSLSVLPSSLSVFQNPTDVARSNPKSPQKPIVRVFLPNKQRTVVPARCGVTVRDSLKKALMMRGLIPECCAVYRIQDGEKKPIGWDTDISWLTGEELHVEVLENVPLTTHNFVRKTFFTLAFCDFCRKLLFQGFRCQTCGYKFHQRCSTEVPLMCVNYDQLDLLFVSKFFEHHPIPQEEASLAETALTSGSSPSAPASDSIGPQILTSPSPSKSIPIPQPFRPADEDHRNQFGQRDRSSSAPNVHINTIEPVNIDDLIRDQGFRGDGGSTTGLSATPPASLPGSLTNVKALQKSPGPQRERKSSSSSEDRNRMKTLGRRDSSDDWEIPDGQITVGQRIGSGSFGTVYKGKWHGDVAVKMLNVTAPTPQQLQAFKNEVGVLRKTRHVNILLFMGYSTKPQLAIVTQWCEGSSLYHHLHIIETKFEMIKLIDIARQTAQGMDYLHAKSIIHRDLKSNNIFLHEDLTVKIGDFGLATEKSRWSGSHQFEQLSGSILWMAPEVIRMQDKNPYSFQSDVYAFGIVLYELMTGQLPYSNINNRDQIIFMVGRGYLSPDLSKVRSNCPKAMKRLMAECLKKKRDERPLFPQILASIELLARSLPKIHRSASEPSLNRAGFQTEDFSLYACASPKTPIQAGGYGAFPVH

Structure (SMILES)	Kd [1]	Kd [2]	Kd [3]	Kd [4]	Kd [5]	Kd [6]	Kd (SRSF protein kinase 1)	Kd [7]	Kd (Activated CDC42 kinase 1)	Kd [8]	Kd (Focal adhesion kinase 1)	Kd [9]	Kd [10]	Kd [11]	Kd [12]	Kd [13]	Kd [14]	Kd [15]	Kd [16]	Kd [17]
COCC(=O)NC/C=C/c1ccc2ncnc(Nc3ccc(Oc4ccc(C)nc4)c(C)c3)c2c1 [CP-724714]	> 10 µM	> 10 µM	> 10 µM	> 10 µM	> 10 µM	> 10 µM	> 10 µM	> 10 µM	> 10 µM	> 10 µM	> 10 µM	> 10 µM	> 10 µM	> 10 µM	> 10 µM	> 10 µM	> 10 µM	> 10 µM	> 10 µM	–
CCOc1cc2ncc(C#N)c(Nc3ccc(F)c(Cl)c3)c2cc1NC(=O)/C=C/CN(C)C [PELITINIB]	> 10 µM	> 10 µM	> 10 µM	> 10 µM	> 10 µM	> 10 µM	> 10 µM	1.2 µM	5.2 µM	> 10 µM	–	–	> 10 µM	> 10 µM	–	> 10 µM	> 10 µM	–	> 10 µM	> 10 µM
NC(=O)c1ccc(-c2nc(-c3ccc4c(c3)OCO4)c(-c3ccccn3)[nH]2)cc1 [SB-431542]	> 10 µM	> 10 µM	> 10 µM	> 10 µM	> 10 µM	> 10 µM	> 10 µM	> 10 µM	> 10 µM	> 10 µM	> 10 µM	> 10 µM	> 10 µM	> 10 µM	> 10 µM	> 10 µM	> 10 µM	> 10 µM	> 10 µM	–
Nc1nc(Nc2ccc(S(N)(=O)=O)cc2)nn1C(=O)c1c(F)cccc1F [JNJ-7706621]	> 10 µM	> 10 µM	> 10 µM	> 10 µM	–	> 10 µM	–	> 10 µM	–	0.12 µM	–	> 10 µM	–	3.6 µM	> 10 µM	–	> 10 µM	–	> 10 µM	> 10 µM
Oc1ccc(-c2nc(-c3ccncc3)c(-c3ccc(F)cc3)[nH]2)cc1 [SB-202190]	> 10 µM	> 10 µM	> 10 µM	0.53 µM	> 10 µM	4.2 µM	> 10 µM	> 10 µM	> 10 µM	> 10 µM	> 10 µM	> 10 µM	> 10 µM	> 10 µM	> 10 µM	> 10 µM	> 10 µM	> 10 µM	> 10 µM	0.62 µM
